Data from US20230158071A1, “TUMOR COMBINED IMMUNOTHERAPY” (CRAGE medical Co., Limited, priority 2018, published 2023).

Experiments:
mouse T cells = test: In vitro proliferation of mouse T cells (JQ1); assay type: cell-based; details: JQ1, dose-dependent manner
Excerpt: (§1) Another small molecule drug JQ1 is a BET bromodomain inhibitor acting on BRD4, it may induce tumor cell apoptosis (i.e., slow proliferation) by targeted inhibition of BRD4, thereby achieving anti-tumor effects.

mouse CAR-T cells = test: In vitro proliferation of mouse CAR-T cells (veliparib, JQ1); assay type: cell-based
Excerpt: as §1

E0771ERVIII cells = test: In vitro proliferation of E0771ERVIII cells (veliparib, JQ1); assay type: cell-based, mouse
Excerpt: as §1

CART cells = test: LDH cell killing experiment with veliparib; assay type: cell-based; details: 100 μM
Excerpt: as §1

| SMILES | proliferation of mouse T cells (mouse T cells) | proliferation of CAR-T cells (mouse CAR-T cells; JQ1, dose-dependent manner) | proliferation of E0771ERVIII cells (E0771ERVIII cells; different concentrations of JQ1 for 48 h) | killing effect of CART cells (CART cells) | proliferation of mouse CAR-T cells (mouse CAR-T cells; veliparib at 20 μM or more) | concentration level that may affect the proliferation level of E0771ERVIII cells (E0771ERVIII cells; in vitro) [µM] | concentration that may significantly inhibit the proliferation of E0771ERVIII cells (E0771ERVIII cells; in vitro) [µM] |
| --- | --- | --- | --- | --- | --- | --- | --- |
| Cc1sc2c(c1C)C(c1ccc(Cl)cc1)=N[C@@H](CC(=O)OC(C)(C)C)c1nnc(C)n1-2 [JQ1] | significantly inhibit | significantly inhibit | could not inhibit | – | – | – | – |
| C[C@]1(c2nc3c(C(N)=O)cccc3[nH]2)CCCN1 [veliparib] | – | – | – | could not improve | significantly inhibit | ≥ 10 | ≥ 20 |
